Laboratory results: patent publication US20170368082A1, “FORMULATIONS OF BRINCIDOFOVIR” (priority 2016, published 2017)

Experiment: Tissue distribution by quantitative whole-body autoradiography (QWBA)
Format: in vivo, male Sprague Dawley and Long-Evans rats
Conditions: for Cmax Ratio (PO/IV) / AUCall Ratio (PO/IV): 15 mg/kg, Group 7 vs Group 4
Protocol: The study utilized 4 groups of male SD rats (albino), and 3 groups of male LE rats (pigmented); a total of 39 rats. All animals were obtained from Hilltop Lab Animals, Inc. (Scottdale, Pa.). […] Rats in Group 5 were administered a single 2-h IV infusion of [^14C]brincidofovir at a target dose of 2 mg/kg. […] Three dosing formulations (one for high dose IV, one for low dose IV, and one for PO dose) were prepared at QPS on the day of dosing. The IV formulation for Groups 1, 2, 3, and 4 contained a vehicle of 10 mM sodium phosphate buffer in 5% dextrose solution at pH 8.0(±0.1).
Each animal, at their respective termination time points, was euthanized for QWBA analysis immediately after blood collection. One rat per time point per Group was euthanized as listed below.
The blood samples were maintained on wet ice (approximately 4° C.) and then centrifuged to obtain plasma within 1 h of the blood collection time. Centrifuge settings were recorded in the study notebook. Duplicate aliquots of plasma (0.050 mL) were analyzed for radioactivity using direct counting by LSC, and residual plasma was stored at approximately −70° C. and was saved for possible future analysis under a separate study protocol. Residual red blood cells were discarded as radioactive waste.
The pinna, distal limbs, hair, and tail were removed from each frozen carcass and each frozen carcass was embedded in an aqueous suspension of approximately 2% (w/v) carboxymethylcellulose and frozen into a block. The blocks were stored at approximately −20° C. prior to sectioning. Each blocked carcass was mounted on the object stage of a cryomicrotome (Leica CM3600 Cryomacrocut, Nussloch, Germany and Vibratome 9800, St. Louis, Mo.) maintained at approximately −20° C. and internal standards (3), which were plasma fortified with [^14C]-glucose at one concentration (approximately 0.05 μCi/mL), were placed into the frozen blocks, prior to sectioning, and were used for section thickness quality control. A number of whole-body sections (approximately 40 μm thick) were taken in the sagittal plane at various levels of interest using a whole-body cryomicrotome set at −20° C. Sagittal sections (20-50 μm thick) of frozen carcasses were exposed to phosphor imaging plates. Regions of images in tissues were converted to concentrations using standards. All of the major tissues, organs, and biological fluids were represented.
Tissue concentration data was determined for the following tissues and/or contents: adipose (brown and white), adrenal gland, bile (in duct), blood (cardiac), bone, bone marrow, brain (cerebrum, cerebellum, medulla), cecum (and contents), large intestine (and contents), epididymis, esophagus, eye (uvea and lens), Harderian gland, heart, kidney (cortex and medulla), liver, lung, lymph node, pancreas, pituitary gland, prostate gland, salivary gland, seminal vesicles, skeletal muscle, skin (pigmented and non-pigmented), small intestine (and contents), stomach (gastric mucosa and contents), spleen, spinal cord, testis, thymus, thyroid, and urinary bladder (and contents).
The imaging plate and sections were placed in light-tight exposure cassettes, in a copper-lined lead safe, for a 4-day exposure at room temperature. […] Quantification was performed by image densitometry using MCD image analysis software (v. 7.0, Interfocus Imaging Ltd) and a standard curve constructed from the integrated response [i.e., Molecular Dynamics Counts per square millimeter (MDC/mm^2)] and the nominal concentrations of the ^14C-calibration standards. The concentrations of radioactivity were expressed as the μg equivalents of [^14C]brincidofovir per gram sample (μg equiv/g). A lower limit of quantification (LLOQ) was applied to the data (See section 6.7.4).
Tissue concentrations that fell below the LLOQ were identified as being below the quantification limit (BQL). Tissue areas that were not visualized on autoradiographic images were identified as no sample (NS) and reported as BQL.

For `CCCCCCCCCCCCCCCCOCCCOP(=O)(O)CO[C@H](CO)Cn1ccc(N)nc1=O` [[^14C] brincidofovir], the “Cmax Ratio (PO/IV)” value (Liver) was 0.16, the AUCall (Liver, 2 h IV infusion 15 mg/kg, Group 4) was 2149.7645 μg equiv · h/g and the “Tissue Concentration (168 h)” value (Liver, 2 h IV infusion 15 mg/kg, Group 4, LLOQ 0.036) was 0.451 μg equiv/g. For the same molecule, the “Tissue Concentration (168 h)” value (Liver, PO 15 mg/kg, Group 7, LLOQ 0.034) was 0.393 μg equiv/g, the AUCall (Liver, PO 15 mg/kg, Group 7) was 1426.6340 μg equiv · h/g and the “AUCall Ratio (PO/IV)” value (Lung) was 0.29. For the same molecule, the “Cmax Ratio (PO/IV)” value (Lung) was 0.16, the AUCall (Lung, 2 h IV infusion 15 mg/kg, Group 4) was 180.1960 μg equiv · h/g and the “Tissue Concentration (168 h)” value (Lung, 2 h IV infusion 15 mg/kg, Group 4, LLOQ 0.036) was 0.178 μg equiv/g. For the same molecule, the “Tissue Concentration (168 h)” value (Lung, PO 15 mg/kg, Group 7, LLOQ 0.034) was 0.065 μg equiv/g, the AUCall (Lung, PO 15 mg/kg, Group 7) was 53.1145 μg equiv · h/g and the “AUCall Ratio (PO/IV)” value (Lymph Node) was 0.41. For the same molecule, the “Cmax Ratio (PO/IV)” value (Lymph Node) was 0.11, the AUCall (Lymph Node, 2 h IV infusion 15 mg/kg, Group 4) was 208.8530 μg equiv · h/g and the “Tissue Concentration (168 h)” value (Lymph Node, 2 h IV infusion 15 mg/kg, Group 4, LLOQ 0.036) was 0.247 μg equiv/g. The “Tissue Concentration (168 h)” value (Lymph Node, PO 15 mg/kg, Group 7, LLOQ 0.034) was 0.129 μg equiv/g, the AUCall (Lymph Node, PO 15 mg/kg, Group 7) was 85.04 μg equiv · h/g and the “AUCall Ratio (PO/IV)” value (Pancreas) was 0.29. For the same molecule, the “Cmax Ratio (PO/IV)” value (Pancreas) was 0.13, the AUCall (Pancreas, 2 h IV infusion 15 mg/kg, Group 4) was 36.2010 μg equiv · h/g and the “Tissue Concentration (168 h)” value (Pancreas, 2 h IV infusion 15 mg/kg, Group 4, LLOQ 0.036) was “BQL”. The “Tissue Concentration (168 h)” value (Pancreas, PO 15 mg/kg, Group 7, LLOQ 0.034) was “BQL”, the AUCall (Pancreas, PO 15 mg/kg, Group 7) was 10.3720 μg equiv · h/g and the “AUCall Ratio (PO/IV)” value (Pituitary Gland) was 0.20. For the same molecule, the “Cmax Ratio (PO/IV)” value (Pituitary Gland) was 0.05, the AUCall (Pituitary Gland, 2 h IV infusion 15 mg/kg, Group 4) was 155.1085 μg equiv · h/g and the “Tissue Concentration (168 h)” value (Pituitary Gland, 2 h IV infusion 15 mg/kg, Group 4, LLOQ 0.036) was 0.189 μg equiv/g. The “Tissue Concentration (168 h)” value (Pituitary Gland, PO 15 mg/kg, Group 7, LLOQ 0.034) was 0.042 μg equiv/g, the AUCall (Pituitary Gland, PO 15 mg/kg, Group 7) was 30.5073 μg equiv · h/g and the “AUCall Ratio (PO/IV)” value (Prostate Gland) was 0.62. For the same molecule, the “Cmax Ratio (PO/IV)” value (Prostate Gland) was 0.30, the AUCall (Prostate Gland, 2 h IV infusion 15 mg/kg, Group 4) was 24.3415 μg equiv · h/g and the “Tissue Concentration (168 h)” value (Prostate Gland, 2 h IV infusion 15 mg/kg, Group 4, LLOQ 0.036) was “BQL”. The “Tissue Concentration (168 h)” value (Prostate Gland, PO 15 mg/kg, Group 7, LLOQ 0.034) was “BQL”, the AUCall (Prostate Gland, PO 15 mg/kg, Group 7) was 7.6578 μg equiv · h/g and the “AUCall Ratio (PO/IV)” value (Salivary Gland) was 0.15. The “Cmax Ratio (PO/IV)” value (Salivary Gland) was 0.09, the AUCall (Salivary Gland, 2 h IV infusion 15 mg/kg, Group 4) was 60.9180 μg equiv · h/g and the “Tissue Concentration (168 h)” value (Salivary Gland, 2 h IV infusion 15 mg/kg, Group 4, LLOQ 0.036) was 0.056 μg equiv/g. The “Tissue Concentration (168 h)” value (Salivary Gland, PO 15 mg/kg, Group 7, LLOQ 0.034) was “BQL”, the AUCall (Salivary Gland, PO 15 mg/kg, Group 7) was 9.1933 μg equiv · h/g and the “AUCall Ratio (PO/IV)” value (Seminal Vesicles) was 0.17. The “Cmax Ratio (PO/IV)” value (Seminal Vesicles) was 0.45, the AUCall (Seminal Vesicles, 2 h IV infusion 15 mg/kg, Group 4) was 297.3580 μg equiv · h/g and the “Tissue Concentration (168 h)” value (Seminal Vesicles, 2 h IV infusion 15 mg/kg, Group 4, LLOQ 0.036) was 0.361 μg equiv/g. For the same molecule, the “Tissue Concentration (168 h)” value (Seminal Vesicles, PO 15 mg/kg, Group 7, LLOQ 0.034) was 0.063 μg equiv/g, the AUCall (Seminal Vesicles, PO 15 mg/kg, Group 7) was 50.2500 μg equiv · h/g and the “AUCall Ratio (PO/IV)” value (Skeletal Muscle) was 0.13. For the same molecule, the “Cmax Ratio (PO/IV)” value (Skeletal Muscle) was 0.16, the AUCall (Skeletal Muscle, 2 h IV infusion 15 mg/kg, Group 4) was 10.3485 μg equiv · h/g and the “Tissue Concentration (168 h)” value (Skeletal Muscle, 2 h IV infusion 15 mg/kg, Group 4, LLOQ 0.036) was “BQL”. The “Tissue Concentration (168 h)” value (Skeletal Muscle, PO 15 mg/kg, Group 7, LLOQ 0.034) was “BQL”, the AUCall (Skeletal Muscle, PO 15 mg/kg, Group 7) was 1.3265 μg equiv · h/g and the “AUCall Ratio (PO/IV)” value (Skin (non-pigmented)) was 0.10. For the same molecule, the “Cmax Ratio (PO/IV)” value (Skin (non-pigmented)) was 0.17 and the AUCall (Skin (non-pigmented), 2 h IV infusion 15 mg/kg, Group 4) was 146.2340 μg equiv · h/g.
